In US7015228B2, “4-amino-2-(2-pyridyl)pyrimidines as microbicidal active substances” (Ciba Specialty Chemicals Corporation, priority 2001, dated 2006):
Converted amounts (≈) assume the structure as drawn.

Assays:
[1] = system: E. coli NCTC 8196; test: Determination of the bactericidal activity (logarithmic reduction in organism count); type: cell-based, Escherichia coli; conditions: contact for 30 minutes at a substance concentration of 120 μg/mL
[2] = system: S. aureus ATCC 6538; test: as above; type: cell-based, Staphylococcus aureus; conditions: contact for 30 minutes at a substance concentration of 120 μg/mL
Procedure: (§1) Determination of the Bactericidal Activity of Selected Compounds
(§2) Casein-soybean flour-peptone broth for preparation of pre-cultures of test bacteria
(§3) Examples of Test Organisms:
(§4) • Staphylococcus aureus ATCC 6538 • Escherichia coli ATCC 10536 • Salmonella choleraesuis ATCC 10708 Procedure:
(§5) The test substances are dissolved in dimethyl sulfoxide (DMSO) and tested in a concentration of 120 μg/ml.
(§6) Bacteria are incubated overnight in CASO broth and adjusted to an organism count of 1–5×10^5 CFU/ml using 0.85% sodium chloride solution.
(§7) The test substances are pre-pipetted into microtitre plates in amounts of 8 μl per well.
(§8) The adjusted test organism suspensions are added in amounts of 192 μl per well to the test substances and mixed. After defined contact times, the test batches are mixed, an aliquot is withdrawn and diluted in several steps in a dilution series of 1:10 in a suitable inactivation medium.
The test plates are incubated for 24 hours at 37° C.
(§9) After incubation, the growth is determined on the basis of the turbidity of the test batches (optical density) at 620 nm in a microplate reader.
(§10) One microtitre plate is used for each test organism.
(§11) All the substances are tested in duplicate.

[3] = system: S. choleraesuis ATCC 10708; test: as above; type: cell-based, Salmonella choleraesuis; conditions: contact for 30 minutes at a substance concentration of 120 μg/mL
Procedure: as §1, §2, §3, §4, §5, §6, §7, §8
The test plates are incubated for 24 hours at 37° C. […]
as §10, §11

[4] = system: S. epidermidis ATCC 12228; test: Minimum inhibitory concentration (MIC), further microorganisms; type: cell-based; conditions: Table 8; * = significant inhibition of growth, but not complete inhibition
Procedure: (§12) Determination of the Minimum Inhibitory Concentration (MIC Value) in Microtitre Plates
(§13) Casein-soybean flour-peptone broth for preparation of pre-cultures of test bacteria and yeast.
(§14) Mycological slant agar for the pre-culture of moulds
(§15) The test substances are pre-dissolved in dimethyl sulfoxide (DMSO) and tested in a dilution series of 1:2.
(§16) Bacteria and yeast are cultured overnight in CASO broth, the mould is cultured overnight on mycological slant agar, and washed off using 10 ml of 0.85% sodium chloride solution (+0.1% Triton X-100).
(§17) All the test organisms are adjusted to an organism count of 1–5×10^6 CFU/ml using 0.85% sodium chloride solution.
as §7
(§18) Pre-diluted organism suspensions are diluted 1:100 in CASO broth (bacteria and yeast) or Sabouraud 2% glucose broth (mould) and are added in amounts of 192 μl per well to the test substances.
(§19) The test batches are incubated for 48 hours at 37° C. (bacteria and yeast) or for 5 days at 28° C. (mould).
as §9
(§20) The minimum inhibitory concentration (MIC value) is the concentration of substance at which there is found (compared to the growth of the control) an appreciable inhibition of growth (≦20% growth) of the test organisms.
(§21) One microtitre plate is used for each test organism and substance concentration. All the substances are tested in duplicate.

[5] = system: Epidermophyton floccosum DSM 10709; test: as above; type: cell-based; conditions: Table 8; * = significant inhibition of growth, but not complete inhibition
Procedure: as §12, §13, §14, §15, §16, §17, §7, §18, §19, §9, §20, §21

[6] = system: Trichophyton mentagrophytes ATCC 9533; test: as above; type: cell-based; conditions: Table 8; * = significant inhibition of growth, but not complete inhibition
Procedure: as §12, §13, §14, §15, §16, §17, §7, §18, §19, §9, §20, §21

[7] = system: Micrococcus luteus ATCC 9341; test: as above; type: cell-based; conditions: Table 8; * = significant inhibition of growth, but not complete inhibition
Procedure: as §12, §13, §14, §15, §16, §17, §7, §18, §19, §9, §20, §21

[8] = system: Staphylococcus aureus ATCC 9144; test: as above; type: cell-based; conditions: Table 8; * = significant inhibition of growth, but not complete inhibition
Procedure: as §12, §13, §14, §15, §16, §17, §7, §18, §19, §9, §20, §21

[9] = system: Enterococcus hirae ATCC 10541; test: as above; type: cell-based; conditions: Table 8; * = significant inhibition of growth, but not complete inhibition
Procedure: as §12, §13, §14, §15, §16, §17, §7, §18, §19, §9, §20, §21

[10] = system: Staphylococcus hominis DMS 20328; test: Minimum inhibitory concentration (MIC) in microtitre plates; type: cell-based; conditions: Table 7; 48 hours at 37° C.; MIC = ≦20% growth compared to control
Procedure: as §12, §13, §14, §3, §15, §16, §17, §7, §18, §19, §9, §20, §21

[11] = system: Escherichia coli NCTC 8196; test: as above; type: cell-based; conditions: for Minimum inhibitory concentration (MIC) E. coli: Table 7, 48 hours at 37° C., MIC = ≦20% growth compared to control; for Minimum inhibitory concentration (MIC) E. coli NCTC 8196: Table 8, * = significant inhibition of growth, but not complete inhibition
Procedure: as §12, §13, §14, §3, §15, §16, §17, §7, §18, §19, §9, §20, §21

Compound	Logarithmic reduction in organism count, E. coli NCTC 8196 [1]	Logarithmic reduction in organism count, S. aureus ATCC 6538 [2]	Logarithmic reduction in organism count, S. choleraesuis ATCC 10708 [3] [log]	Minimum inhibitory concentration (MIC) S. epidermidis ATCC 12228 [4] [µg/mL]	Minimum inhibitory concentration (MIC) Epidermophyton floccosum DSM 10709 [5]	Minimum inhibitory concentration (MIC) Trichophyton mentagrophytes ATCC 9533 [6]	Minimum inhibitory concentration (MIC) Micrococcus luteus ATCC 9341 [7] [µg/mL]	Minimum inhibitory concentration (MIC) Staphylococcus aureus ATCC 9144 [8]	Minimum inhibitory concentration (MIC) Enterococcus hirae ATCC 10541 [9] [µg/mL]	Minimum inhibitory concentration (MIC) S. hominis [10] [µg/mL]	Minimum inhibitory concentration (MIC) E. coli [11] [µg/mL]	Minimum inhibitory concentration (MIC) E. coli NCTC 8196 [11]
CCc1c(C)nc(-c2ccccn2)nc1NCCCCCCCCCCCCN [Compound of formula 7]	≦1 log	2 log	<1									
CCCCCCCCNc1nc(-c2ccccn2)nc(C)c1CC [Compound of formula 9]	<1 log	<1 log	<1									
CCCCCCCCCNc1nc(-c2ccccn2)nc(C)c1CC [Compound of formula 10]	<1 log	1–2 log	<1									
CCCCCCCCCCNc1nc(-c2ccccn2)nc(C)c1CC [Compound of formula 11]	≦1 log	1–2 log	<1									
CCCCCCCCCCCCNc1nc(-c2ccccn2)nc(C)c1CC [Compound of formula 12]	<1 log	1–2 log	<1									
Cc1cc(NCCCCCCCCCN)nc(-c2ccccn2)n1 [Compound of formula 18]	<1 log	1 log	<1									
Cc1cc(NCCCCCCCCCCCCN)nc(-c2ccccn2)n1 [Compound of formula 19]	≦1 log	2–3 log	<1									
CCCCCCCCNc1cc(C)nc(-c2ccccn2)n1 [Compound of formula 21]	<1 log	1–2 log	<1									
CCCCCCCCCNc1cc(C)nc(-c2ccccn2)n1 [Compound of formula 22]	<1 log	1–2 log	<1									
CCCCCCCCCCNc1cc(C)nc(-c2ccccn2)n1 [Compound of formula 23]	<1 log	3 log	<1									
CCCCCCCCCCCCNc1cc(C)nc(-c2ccccn2)n1 [Compound of formula 24]	≦1 log	2 log	<1									
CCCCCCCCNc1cc(C(C)(C)C)nc(-c2ccccn2)n1 [Compound of formula 57]	<1 log		<1									
CCCCCCCNc1cc(C(C)(C)C)nc(-c2ccccn2)n1 [compound 56]				3.75 (≈ 11.5 µM)	*30 μg/mL	*30 μg/mL	<0.5	3.75 µg/mL (≈ 11.5 µM)	1.9 (≈ 5.82 µM)	3.75 (≈ 11.5 µM)	>120	>60 µg/mL
CCCCCCCCNc1cc(C(C)(C)C)nc(-c2ccccn2)n1 [compound 57]				1.9 (≈ 5.58 µM)	60 µg/mL (≈ 176 µM)	*60 μg/mL	<0.5	1.9 µg/mL (≈ 5.58 µM)	1.0 (≈ 2.94 µM)	3.75 (≈ 11 µM)	>120	>60 µg/mL
CCCCCCCCCNc1cc(C(C)(C)C)nc(-c2ccccn2)n1 [compound 58]				1.9 (≈ 5.36 µM)	>60 µg/mL	>60 µg/mL	<0.5	*1.9 μg/mL	7.5 (≈ 21.2 µM)	3.75 (≈ 10.6 µM)	>120	>60 µg/mL
CC(C)(C)c1cc(NCCc2ccccc2)nc(-c2ccccn2)n1 [compound 63]				30 (≈ 90.2 µM)	*15 μg/mL	*60 μg/mL	7.5 (≈ 22.6 µM)	15 µg/mL (≈ 45.1 µM)	30 (≈ 90.2 µM)	3.75 (≈ 11.3 µM)	>120	*60 μg/mL
CCCCCCCNc1nc(-c2ccccn2)nc(C)c1C(C)C [compound 68]				15 (≈ 45.9 µM)	60* μg/mL	>60 µg/mL	3.75 (≈ 11.5 µM)	15 µg/mL (≈ 45.9 µM)	7.5 (≈ 23 µM)	7.5 (≈ 23 µM)	>120	>30 µg/mL
CCCCCCCCCNc1nc(-c2ccccn2)nc(C)c1C(C)C [compound 70]				7.5 (≈ 21.2 µM)	*7.5 μg/mL	15 µg/mL (≈ 42.3 µM)	1.0 (≈ 2.82 µM)	7.5 µg/mL (≈ 21.2 µM)	3.75 (≈ 10.6 µM)	3.75 (≈ 10.6 µM)	>120	>60 µg/mL
CCCCCCCCCCNc1nc(-c2ccccn2)nc(C)c1C(C)C [compound 71]				7.5 (≈ 20.3 µM)	60 µg/mL (≈ 163 µM)	*30 μg/mL	1.9 (≈ 5.16 µM)	7.5 µg/mL (≈ 20.3 µM)	7.5 (≈ 20.3 µM)	5 (≈ 13.6 µM)	>80	>60 µg/mL
CCCCCCCCCCNc1cc(CCOC)nc(-c2ccccn2)n1 [compound 83]				15 (≈ 40.5 µM)	>60 µg/mL	>60 µg/mL	3.75 (≈ 10.1 µM)	*15 μg/mL	30 (≈ 81 µM)	7.5 (≈ 20.2 µM)	>120	>60 µg/mL
